Results published in US20070190187A1, “FORMULATION FOR ENHANCED DELIVERY OF PHENETHYLAMINE” (priority 2006, published 2007).

Experiment: co-administration of phenylethylamine with moiety/moieties that inhibit the enzyme MAO-B
Format: in vivo
Conditions: co-administered with a moiety/moieties that inhibited the effects of the enzyme MAO-B
Text: Therefore, the combination of phenylethylamine or derivative thereof and the MAO-B enzyme inhibitor may be formulated as a dietary supplement, other foodstuff, a pharmaceutical, a topical or transdermal compound or a vaccine. The Dietary Supplement Health and Education Act of 1994, commonly referred to as DSHEA, defines “dietary supplement” as any product (except tobacco) that contains at least one of the following: (1) a vitamin, (2) a mineral, (3) an herb or botanical, (4) an amino acid, (5) a dietary substance “for use to supplement the diet by increasing total dietary intake,” or (6) any concentrate, metabolite, constituent, extract, or combination of any of the aforementioned ingredients. Examples of dietary supplements include, but are not limited to nutritional products; sports performance products, including ergogenic sports performing products; weight loss products; and meal replacement products. Dietary supplements may exist in various forms, including, but not limited to tablets, capsules, caplets, powders, drinks including shakes, and solid food items including snack bars, etc. For purposes of the present invention, a foodstuff is defined as a substance that can be used or prepared for use as food or extracted from food.

NCCc1ccccc1 [phenylethylamine, Phenethylamine]
amount of phenethylamine absorbed into the bloodstream, cells and tissue: increased amount
amount of phenethylamine allowed to reach the brain and period of time per dose administered before it is metabolized: a greater amount of phenethylamine or a derivative thereof, is allowed to reach the brain for a greater period of time
